Common to all, as to experiment: growth of human tumour cells (NCI), 48 h
The test system of assay [1] is ACHN.
In assay [2] the test system is T47D.
The test system of assay [3] is HCT-15.
Assay [4] relates to DLD-1.
Assay [5] concerns DMS-114.
The test system of assay [6] is HOP-18.
In assay [7] the test system is LXFL 529.

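Dose response: 5 concentrations. Exposure: 48 h. Format: 96-well plates. Endpoint: linear interpolation; highest concentration if not reached. The concentration for 50% growth inhibition is given as GI50.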 The source made the active and inactive calls. Cut-off read from the data, not from the text of the source: active = GI50 up to about 1.1 µM and inactive = higher.

The source of these data is ChEMBL document CHEMBL1201862, “PubChem BioAssay data set” (2004).

As for `Cc1cc(C)c(S(=O)(=O)N(CCCN)OCCCN)c(C)c1`, the GI50 in assay [1] and in assay [2] was > 100 µM (inactive) in each case.
For `COc1ccc(/C(C)=N/NC(=S)N(C)C)c(O)c1`, the values for the GI50 in assay [1] and in assay [2] were 6.41 µM (inactive) and 7.48 µM (inactive), respectively.
For `CCC(=O)NC(Nc1ccccc1F)(C(F)(F)F)C(F)(F)F`, the GI50 in assay [3] was over 100 µM; in assay [1], > 100 µM (inactive); in assay [2], 40.9 µM (inactive).
In the case of `CC(=O)OCc1cc(=O)n(C)c2c3c4c(cc12)c(C)cc(=O)n4CO3`, the GI50 was 1.95 µM in assay [3], 1.37 µM (inactive) in assay [4], 1.69 µM (inactive) in assay [5] and 5.33 µM (inactive) in assay [6].
`C1=Nc2ccccc2Cn2nncc21`: the GI50 in assay [3] was 41.8 µM; in assay [1], > 100 µM (inactive); in assay [4], 57.3 µM (inactive); in assay [6], 74.8 µM (inactive); in assay [7], 98.2 µM (inactive).
For `CCCCC1(C2c3ccccc3Oc3ccccc32)C(=O)N(c2ccccc2)N(c2ccccc2)C1=O`, the values for the GI50 in assay [3], in assay [4] and in assay [6] were 41.3 µM, 25.8 µM (inactive) and > 100 µM (inactive), respectively.
On to `Cn1c(/C=C/CO)c(CO)c2c1C(=O)C=C(N1CC1)C2=O` [APAZIQUONE], for which the GI50 in assay [3] is under 0.01 µM; in assay [4] it was 0.0152 µM (active); in assay [5], < 0.01 µM (active); in assay [6], < 0.01 µM (active).
